Values joined by “and” are separate entries in the source; they are usually repeats but may differ in a detail not shown here. Identical values can stand only once.
Tests used:
[1] = system: kidney tissues of treated or untreated rats; test: Real-time qRT-PCR of marker transcripts in kidney tissue panel, discovery stage (Table 22); type: in vivo, rat; details: rat kidney, listed as Dox
Experimental: Before RT preparation the RNA was treated with DNA-free (Ambion, cat. No. AM1906) DNase treatment and removal—according to manufacturer protocol. DNase procedure was repeated until no DNA is detected in a PCR reaction using the RNA samples.
The mixture is then incubated for 5 min at 65° C. and then quickly chilled on ice. Thereafter, 20 μl of 5× SuperscriptII first strand buffer (Invitrogen, Cat. No. Y00146), 9.6 μl 0.1M DTT (Invitrogen, Cat. No. Y00147) and 160 units RNasin (Promega, Cat. No. N251A) are added, and the mixture is incubated for 10 min at 25° C., followed by further incubation at 42° C. for 2 min. […] The resulting cDNA is diluted 1:20 in TE buffer (10 mM Tris pH=8, 1 mM EDTA pH=8).
cDNA (5 μl), prepared as described above, is used as a template in Real-Time PCR reactions using the SYBR Green I assay (PE Applied Biosystem) with specific primers in 100 nM concentration if not indicated otherwise and UNG Enzyme (Eurogentech or equal) Amplification is effected as follows: 50° C. for 2 min, 95° C. for 10 min, and then 40 cycles of 95° C. for 15 sec, followed by 60° C. for 1 min (if not indicated otherwise). Amplification step is followed by dissociation step. Detection is performed by using the PE Applied Biosystem SDS 7000. The cycle in which the reactions achieved a threshold level (Ct) of fluorescence is registered and is used to calculate the relative transcript quantity in the RT reactions. Non-detected samples are assigned Ct value of 41 and are calculated accordingly. The relative quantity is calculated using the equation Q=efficiencŷ-Ct. The efficiency of the PCR reaction is calculated from a standard curve, created by using serial dilutions of several reverse transcription (RT) reactions. To minimize inherent differences in the RT reaction, the resulting relative quantities are normalized to normalization factor calculated as follows: […]
The relative quantity (Q) of each housekeeping gene in each sample is calculated as described above. In order to calculate the “relative Q relative to MED” each Q for each HSKP gene is divided by the median quantity of this gene in all panel samples. To finally achieve the normalization factor of each sample the geometric mean of all four “relative Q relative to MED” was calculated. The normalization factor was then used for further calculations.
The markers of the present invention were tested with regard to their expression in a panel of kidney tissues samples from treated and control rats. Unless otherwise noted, all experimental data relates to the novel polynucleotides and proteins of the present invention, named according to the segment being tested (as expression was tested through RT-PCR as described). Tests were then performed as described in the “Materials and Experimental Procedures” section above.
The qRT-PCR measurements were normalized according to each samples normalization factor as described in “RT Preparation and Real-Time qRT-PCR Analysis” and further multiplied by a constant factor for ease of viewing.

[2] = system: kidney tissues of treated or untreated rats; test: Real-time qRT-PCR of signature amplicons, validation stage, labeled and un-labeled samples (Table 23); details: for H31883_DB71_seg13 normalized qRT-PCR result / MUSCYCG1R_DB81_seg19-20 normalized qRT-PCR result / W41270_DB81_seg11 normalized qRT-PCR result: labeled sample, one line per animal
Description: New primers were designed for part of the transcripts, and new conditions for several qRT-PCR reactions were used, as described below.
The measurements were normalized in two steps. First—according to the house-keeping-genes normalization factor, and second—each plate was normalized according to ratio of the intensity measurements from samples appearing in it and in the shuffled (normalization) plate (Table 25 provides the plates details and the section “Inter-Plate Normalization” provides details of the normalization process). The normalized values were further scaled by a factor, for ease of viewing.
RT was prepared and qRT-PCR performed and analyzed as described hereinabove. qRT-PCR was performed for the four genes comprising the signature of the discovery stage described in Table 13. Two amplicons were tested for each gene—one representing the wild-type transcript, and another representing an alternative splice variant. Each amplicon was measured using the labeled samples described in Table 9 herein, as well as the un-labeled samples. Samples from both groups (labeled and un-labeled) were tested in seven 96 well plates as described in Table 25. In order to correct possible run to run variations, the following controls were added: 1. several samples were repeated in all 96 wells plates; 2. control shuffled plate was designed which combined samples from all seven test plates.
To account for possible differences of qRT-PCR measurements between the different plates due to experimental artifacts, a normalization plate was planned. This plate, designated hereinabove ‘shuffled plate’, contained samples from all other plates. Real Time PCR was performed on this plate using the primers appropriate for all candidates in tables 26 and 27. For each other plate (plates 1-7 above) and each amplicon, the samples appearing also in the shuffled plate were examined—the ratio between the transcript abundance as measured in the plate to the abundance as measured in the shuffled plate was calculated, outliers were manually removed, and the geometric mean of the left ratios was taken as an additional multiplicative normalization factor for the plate and amplicon.

[3] = day28, individual animals (F and M)
[4] = day1, female rat kidney, listed as Dox
[5] = day1, male rat kidney, listed as Dox
[6] = day28, female rat kidney, listed as Dox
[7] = day28, male rat kidney, listed as Dox
[8] = labeled samples, day1, kidney of individual male/female rats, listed as Dox
[9] = labeled samples, day5, kidney of individual male/female rats, listed as Dox
[10] = labeled samples, day28, kidney of individual male/female rats, listed as Dox

With COc1cccc2c1C(=O)c1c(O)c3c(c(O)c1C2=O)C[C@@](O)(C(=O)CO)C[C@@H]3O[C@H]1C[C@H](N)[C@H](O)[C@H](C)O1 [Doxorubicin] the “RATRAB13X_DB71_seg11-13 normalized Real Time PCR” value [1, 3] was 0.74 and 0.95 and 1.05 and 0.91 and 0.77 and 0.84, the “RNU24174_DB71_seg8 normalized Real Time PCR” value [1, 3] was 1.99 and 2.06 and 4.39 and 3.5 and 2.2 and 2.91 and the “W41270_DB81_seg11 normalized Real Time PCR” value [1, 3] was 0.84 and 0.44 and 0.77 and 1.64 and 0.54 and 0.5. The “W64472_DB81_seg2 normalized Real Time PCR” value [1, 3] was 0.8 and 0.69 and 1.73 and 1.71 and 0.83 and 1.15, the “W83813_DB81_seg27 normalized Real Time PCR” value [1, 3] was 0.58 and 0.61 and 0.63 and 0.51 (2×) and 0.55 and the “AA686189_DB71_seg6 normalized Real Time PCR expression” value ([1]; day28, individual animals) was 1.5 and 0.62 and 0.04 and 6.37 and 0.92 and 1.28. The “AI045075_DB71_seg6 normalized Real Time PCR expression” value ([1]; day28, individual animals) was 0.66 and 0.82 and 1.6 and 1.49 and 0.9 and 0.87, the “AI454051_DB71_seg0 normalized Real Time PCR expression” value ([1]; day28, individual animals) was 0.85 and 0.92 and 0.87 and 0.96 and 1.11 and 0.72 and the “H31045_DB71_seg5 normalized Real Time PCR expression” value ([1]; day28, individual animals) was 2.16 and 2.58 and 0.51 and 1.57 and 2.33 and 2.12. For the same compound, the “H31883_DB71_seg13 normalized qRT-PCR result” value [2, 4] was 2.054 and 1.752 and 1.003, the “MUSCYCG1R_DB81_seg19-20 normalized qRT-PCR result” value [2, 4] was 1.631 and 1.268 and 0.741 and the “W41270_DB81_seg11 normalized qRT-PCR result” value [2, 4] was 1.548 and 1.367 and 0.977. The “H31883_DB71_seg13 normalized qRT-PCR result” value [2, 5] was 0.956 and 0.936 and 0.964, the “MUSCYCG1R_DB81_seg19-20 normalized qRT-PCR result” value [2, 5] was 1.257 and 1.622 and 1.454 and the “W41270_DB81_seg11 normalized qRT-PCR result” value [2, 5] was 1.26 and 2.478 and 1.45. The “H31883_DB71_seg13 normalized qRT-PCR result” value [2, 6] was 0.734 and 0.719 and 0.955, the “MUSCYCG1R_DB81_seg19-20 normalized qRT-PCR result” value [2, 6] was 0.964 and 0.653 and 0.54 and the “W41270_DB81_seg11 normalized qRT-PCR result” value [2, 6] was 2.157 and 1.462 and 1.023. The “H31883_DB71_seg13 normalized qRT-PCR result” value [2, 7] was 0.686 and 0.442 and 0.586, the “MUSCYCG1R_DB81_seg19-20 normalized qRT-PCR result” value [2, 7] was 0.669 and 1.434 and 0.785 and the “W41270_DB81_seg11 normalized qRT-PCR result” value [2, 7] was 1.613 and 3.226 and 1.604. For the same compound, the “H31883_DB71_seg13 normalized qRT-PCR expression (Cyclin-G1 (CCNG1) transcript)” value [2, 8] was 0.993 and 1.283 and 1.41 and 1.46 and 1.116, the “MUSCYCG1R_DB81_seg19-20 normalized qRT-PCR expression” value [2, 8] was 1.387 and 1.761 and 2.256 and 1.516 and 1.627 and 1.551 and the “W41270_DB81_seg11 normalized qRT-PCR expression (tumor necrosis factor receptor superfamily, member 12a transcript)” value [2, 8] was 0.824 and 1.286 and 1.43 and 1.148 and 1.501 and 0.935. The “AI045075_DB71_seg6 normalized qRT-PCR expression (Interferon stimulated exonuclease 20 (ISG20) transcript)” value [2, 9] was 1.248 and 1.348 and 1.319 and 1.844, the “H31883_DB71_seg13 normalized qRT-PCR expression (Cyclin-G1 (CCNG1) transcript)” value [2, 9] was 2.129 and 0.905 and 2.586 and 1.227 and 1.377 and the “MUSCYCG1R_DB81_seg19-20 normalized qRT-PCR expression” value [2, 9] was 1.321 and 1.723 and 1.536 and 2.913 and 1.438. The “W41270_DB81_seg11 normalized qRT-PCR expression (tumor necrosis factor receptor superfamily, member 12a transcript)” value [2, 9] was 1.017 and 1.053 and 1.551 and 1.791 and 0.851, the “W64472_DB81_seg2 normalized qRT-PCR expression (Interferon stimulated exonuclease 20 (ISG20) transcript)” value [2, 9] was 2.03 and 2.924 and 1.441 and 3.4 and 2.561 and the “H31883_DB71_seg13 normalized qRT-PCR expression (Cyclin-G1 (CCNG1) transcript)” value [2, 10] was 1.328 and 1.54 and 1.434 and 1.642 and 1.611 and 1.408. For the same compound, the “MUSCYCG1R_DB81_seg19-20 normalized qRT-PCR expression” value [2, 10] was 0.985 and 2.342 and 1.437 and 1.991 and 2.105 and 1.779, the “W41270_DB81_seg11 normalized qRT-PCR expression (tumor necrosis factor receptor superfamily, member 12a transcript)” value [2, 10] was 1.263 and 0.73 and 2.381 and 1.44 and 0.652 and 0.787 and the “Label: true label (Normal/Toxic), known renal toxic effect” value ([2]; rat, in vivo) was “Toxic”.

From patent publication US20160177395A1, “BIOMARKERS FOR THE PREDICTION OF RENAL INJURY” (priority 2007, published 2016)
